Measurements published in patent publication US10047051B2, “Substituted pyridines and method of use” (AbbVie S.á{acute over (.)}r.l., priority 2015, dated 2018).

Columns and labels:
CFTR ΔF508 mutant = molecular target: T1, CFTR ΔF508 mutant (Homo sapiens, UniProt P13569, DEL508-508); test: YFP-halide influx assay for the CFTR-ΔF508 mutation (CFBE41o- cells); format: cell-based; conditions: forskolin 10.67 μM; for EC50: from (1−F/F0) vs concentration plot
T1 construct: expressed in transfected cells; host or cells: CFBE41o- cells, adenoviral transduction
T1 sequence (P13569 with tags, fused parts or gaps DEL508-508): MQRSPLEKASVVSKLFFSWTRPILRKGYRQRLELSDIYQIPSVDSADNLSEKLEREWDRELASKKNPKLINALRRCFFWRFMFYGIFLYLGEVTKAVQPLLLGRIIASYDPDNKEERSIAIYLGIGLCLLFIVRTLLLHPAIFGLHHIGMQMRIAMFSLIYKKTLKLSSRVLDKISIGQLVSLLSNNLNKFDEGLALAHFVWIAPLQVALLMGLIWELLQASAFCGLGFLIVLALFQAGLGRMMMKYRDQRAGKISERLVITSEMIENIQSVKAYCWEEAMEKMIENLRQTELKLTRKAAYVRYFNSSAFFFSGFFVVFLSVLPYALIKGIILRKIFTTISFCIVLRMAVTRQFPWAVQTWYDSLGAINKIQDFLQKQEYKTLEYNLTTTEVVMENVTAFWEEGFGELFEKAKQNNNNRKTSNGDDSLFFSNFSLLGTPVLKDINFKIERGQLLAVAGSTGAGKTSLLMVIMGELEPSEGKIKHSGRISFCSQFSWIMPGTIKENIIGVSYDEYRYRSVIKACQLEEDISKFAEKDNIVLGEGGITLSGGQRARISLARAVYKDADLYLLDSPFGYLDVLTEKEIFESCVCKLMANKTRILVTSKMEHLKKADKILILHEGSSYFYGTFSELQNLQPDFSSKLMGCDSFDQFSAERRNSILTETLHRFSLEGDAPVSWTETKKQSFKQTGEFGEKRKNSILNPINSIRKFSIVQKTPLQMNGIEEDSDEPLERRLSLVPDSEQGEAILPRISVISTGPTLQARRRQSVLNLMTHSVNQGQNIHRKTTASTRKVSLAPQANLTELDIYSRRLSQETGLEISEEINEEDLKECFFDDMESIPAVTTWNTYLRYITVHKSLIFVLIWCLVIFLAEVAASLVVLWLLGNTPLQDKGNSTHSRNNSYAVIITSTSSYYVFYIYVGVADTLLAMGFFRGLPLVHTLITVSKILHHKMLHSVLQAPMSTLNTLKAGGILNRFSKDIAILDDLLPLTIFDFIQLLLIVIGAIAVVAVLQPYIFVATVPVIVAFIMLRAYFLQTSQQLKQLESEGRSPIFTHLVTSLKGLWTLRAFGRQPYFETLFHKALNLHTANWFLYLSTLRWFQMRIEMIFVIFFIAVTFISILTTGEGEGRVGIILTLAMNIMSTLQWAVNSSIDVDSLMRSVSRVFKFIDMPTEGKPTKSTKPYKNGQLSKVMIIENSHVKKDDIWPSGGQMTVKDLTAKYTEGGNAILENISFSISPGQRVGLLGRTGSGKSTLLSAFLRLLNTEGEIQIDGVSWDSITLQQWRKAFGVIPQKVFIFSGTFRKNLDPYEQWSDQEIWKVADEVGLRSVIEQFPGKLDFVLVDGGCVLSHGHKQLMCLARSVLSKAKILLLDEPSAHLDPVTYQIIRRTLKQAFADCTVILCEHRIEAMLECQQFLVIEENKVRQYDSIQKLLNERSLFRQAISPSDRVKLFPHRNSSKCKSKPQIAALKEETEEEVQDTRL
Procedure, shortened: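 EC50 derived from plotting 1−F/F0 (fluorescence 36 s after iodide injection over pre-injection value) against compound concentration. Cells: CFBE41o- transduced with ΔF508-CFTR and YFP quench reporter, corrected 24 h at 27° C or by a CFTR modulator at 37° C.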

CFTR G551D mutant = molecular target: T2, CFTR G551D mutant (Homo sapiens, UniProt P13569, G551D); test: YFP-halide influx assay for the CFTR-G551D mutation (HEK293 cells); format: cell-based; conditions: forskolin 10.67 μM
T2 construct: expressed in transfected cells; host or cells: HEK293 cells, reverse transfection with plasmids
T2 sequence (P13569 whole entry G551D): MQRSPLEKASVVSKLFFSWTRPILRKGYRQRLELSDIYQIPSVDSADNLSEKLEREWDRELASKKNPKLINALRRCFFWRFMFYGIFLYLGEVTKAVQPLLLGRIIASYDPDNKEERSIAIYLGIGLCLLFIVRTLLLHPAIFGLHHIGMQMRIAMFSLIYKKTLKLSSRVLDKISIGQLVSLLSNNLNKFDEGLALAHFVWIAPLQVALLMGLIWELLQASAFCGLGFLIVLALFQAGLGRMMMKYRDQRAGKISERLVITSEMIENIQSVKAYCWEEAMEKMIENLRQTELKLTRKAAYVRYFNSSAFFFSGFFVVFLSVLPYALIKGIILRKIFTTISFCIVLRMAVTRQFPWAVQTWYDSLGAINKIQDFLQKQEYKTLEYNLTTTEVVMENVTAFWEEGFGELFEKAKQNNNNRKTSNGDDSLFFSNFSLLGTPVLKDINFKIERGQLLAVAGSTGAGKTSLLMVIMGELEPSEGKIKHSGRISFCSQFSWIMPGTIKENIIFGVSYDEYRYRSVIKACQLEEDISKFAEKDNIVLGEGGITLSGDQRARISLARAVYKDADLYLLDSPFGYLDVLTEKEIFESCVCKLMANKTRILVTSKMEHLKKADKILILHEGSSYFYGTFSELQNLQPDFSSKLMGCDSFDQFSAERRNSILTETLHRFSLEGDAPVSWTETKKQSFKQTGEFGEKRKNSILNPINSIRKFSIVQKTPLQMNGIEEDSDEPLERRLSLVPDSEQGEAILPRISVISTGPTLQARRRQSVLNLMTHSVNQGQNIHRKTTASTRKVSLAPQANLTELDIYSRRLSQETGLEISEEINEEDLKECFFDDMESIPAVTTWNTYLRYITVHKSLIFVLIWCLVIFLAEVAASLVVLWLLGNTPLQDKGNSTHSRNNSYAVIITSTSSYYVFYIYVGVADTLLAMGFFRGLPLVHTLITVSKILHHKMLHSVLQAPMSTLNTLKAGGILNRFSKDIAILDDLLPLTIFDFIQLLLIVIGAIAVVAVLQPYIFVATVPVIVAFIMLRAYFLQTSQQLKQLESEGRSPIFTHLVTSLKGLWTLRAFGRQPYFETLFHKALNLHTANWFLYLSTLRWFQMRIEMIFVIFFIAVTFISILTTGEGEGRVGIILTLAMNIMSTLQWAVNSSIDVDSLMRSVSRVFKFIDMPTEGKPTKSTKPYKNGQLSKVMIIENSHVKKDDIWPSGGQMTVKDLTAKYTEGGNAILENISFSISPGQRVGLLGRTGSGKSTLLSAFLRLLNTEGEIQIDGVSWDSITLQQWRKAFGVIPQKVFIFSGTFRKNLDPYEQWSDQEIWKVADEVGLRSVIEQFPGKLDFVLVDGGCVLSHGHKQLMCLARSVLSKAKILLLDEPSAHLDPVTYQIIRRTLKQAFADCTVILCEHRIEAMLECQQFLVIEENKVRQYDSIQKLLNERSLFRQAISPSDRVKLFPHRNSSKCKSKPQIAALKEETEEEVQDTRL
Procedure, shortened: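 Channel opening read as I⁻-driven quenching of a YFP H148Q/I152L/F47L reporter over 7 s post-injection, expressed as 1−F/F0 and fitted against concentration for EC50. Cells were HEK293 co-transfected at seeding with G551D CFTR plus reporter, then grown 24 h at 37 °C, 5% CO2.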

| % Activation (CFTR ΔF508 mutant) [%] | EC50 (CFTR ΔF508 mutant) [µM] | % Activation (CFTR G551D mutant) [%] | EC50 (CFTR G551D mutant) [µM] | Compound |
| --- | --- | --- | --- | --- |
| 76.0 | 0.213 | 6.51 | 2 | CC(C)S(=O)(=O)c1cc(N)c(C(=O)NC[C@H](C)O)nc1-c1ccc(F)cc1 [Compound 264, 3-amino-6-(4-fluorophenyl)-N-[(2S)-2-hydroxypropyl]-5-(propan-2-ylsulfonyl)pyridine-2-carboxamide] |
| 107.0 | 0.0078 | 44.8 | 1.31 | C[C@H](O)CNC(=O)c1ncc(S(=O)(=O)N(C)Cc2ccc(F)cc2)cc1N [Compound 269, 3-amino-5-[(4-fluorobenzyl)(methyl)sulfamoyl]-N-[(2S)-2-hydroxypropyl]pyridine-2-carboxamide] |
| 100.0 | 0.143 | 23.8 | > 10 | CC(C)NC(=O)CNC(=O)c1ncc(S(=O)(=O)N2CCC[C@@H]2C)cc1N [Compound 270, 3-amino-5-{[(2S)-2-methylpyrrolidin-1-yl]sulfonyl}-N-[2-oxo-2-(propan-2-ylamino)ethyl]pyridine-2-carboxamide] |
| 68.5 | > 0.667 | 4.2 | > 10 | CCS(=O)(=O)c1cc(N)c(C(=O)NC[C@H](C)O)nc1C1CC1 [Compound 275, 3-amino-6-cyclopropyl-5-(ethylsulfonyl)-N-[(2S)-2-hydroxypropyl]pyridine-2-carboxamide] |
| 108.0 | 0.109 | 13.7 | > 10 | COCC(O)CNC(=O)c1ncc(S(=O)(=O)N2CCC[C@@H]2C)cc1N (stereo partly drawn) [Compound 276, 3-amino-N-(2-hydroxy-3-methoxypropyl)-5-{[(2S)-2-methylpyrrolidin-1-yl]sulfonyl}pyridine-2-carboxamide] |
| 65.5 | > 0.667 | 0.8 | > 10 | COCCN(C)S(=O)(=O)c1cnc(C(=O)NC[C@H](C)O)c(N)c1 [Compound 277, 3-amino-N-[(2S)-2-hydroxypropyl]-5-[(2-methoxyethyl)(methyl)sulfamoyl]pyridine-2-carboxamide] |
| 105.0 | 0.0441 | 21.3 | > 10 | C[C@H](O)CNC(=O)c1ncc(S(=O)(=O)N(C)C2CCC2)cc1N [Compound 278, 3-amino-5-[cyclobutyl(methyl)sulfamoyl]-N-[(2S)-2-hydroxypropyl]pyridine-2-carboxamide] |
| 111.0 | 0.0029 | 57.6 | 1.16 | COc1nc(C(=O)NC[C@H](C)O)c(N)cc1S(=O)(=O)c1ccc(OC(F)(F)F)cc1 [Compound 280, 3-amino-N-[(2S)-2-hydroxypropyl]-6-methoxy-5-{[4-(trifluoromethoxy)phenyl]sulfonyl}pyridine-2-carboxamide] |
| 89.4 | 0.167 | 50.0 | > 3.33 | COc1ccnc(CNC(=O)c2ncc(S(=O)(=O)N3CCC[C@@H]3C)cc2N)n1 [Compound 281, 3-amino-N-[(4-methoxypyrimidin-2-yl)methyl]-5-{[(2S)-2-methylpyrrolidin-1-yl]sulfonyl}pyridine-2-carboxamide] |
| 93.3 | 0.0051 | 96.5 | 2.62 | C[C@H](O)CNC(=O)c1nc(N(C)C)c(S(=O)(=O)c2ccc(OC(F)(F)F)cc2)cc1N [Compound 283, 3-amino-6-(dimethylamino)-N-[(2S)-2-hydroxypropyl]-5-{[4-(trifluoromethoxy)phenyl]sulfonyl}pyridine-2-carboxamide] |

The remaining lines, values behind:

| Compound | % Activation (CFTR ΔF508 mutant) [%] | EC50 (CFTR ΔF508 mutant) [µM] | % Activation (CFTR G551D mutant) [%] | EC50 (CFTR G551D mutant) [µM] |
| --- | --- | --- | --- | --- |
| Nc1cc(S(=O)(=O)c2ccc(C(F)(F)F)cc2)c(C2CC2)nc1C(=O)NCCO [Compound 258, 3-amino-6-cyclopropyl-N-(2-hydroxyethyl)-5-{[4-(trifluoromethyl)phenyl]sulfonyl}pyridine-2-carboxamide] | 119.0 | 0.0099 | 108.0 | 0.517 |
| C[C@H](O)CNC(=O)c1nc(-c2ccc(F)cc2)c(S(=O)(=O)C2CCCC2)cc1N [Compound 261, 3-amino-5-(cyclopentanesulfonyl)-6-(4-fluorophenyl)-N-[(2S)-2-hydroxypropyl]pyridine-2-carboxamide] | 87.3 | 0.162 | 16.6 | > 1 |
| C[C@H](O)CNC(=O)c1nc(-c2ccc(F)cc2)c(S(=O)(=O)CCO)cc1N [Compound 262, 3-amino-6-(4-fluorophenyl)-5-[(2-hydroxyethyl)sulfonyl]-N-[(2S)-2-hydroxypropyl]pyridine-2-carboxamide] | 8.9 | > 1 | 5.5 | > 1 |
| CCS(=O)(=O)c1cc(N)c(C(=O)NC[C@H](C)O)nc1-c1ccc(F)cc1 [Compound 263, 3-amino-5-(ethylsulfonyl)-6-(4-fluorophenyl)-N-[(2S)-2-hydroxypropyl]pyridine-2-carboxamide] | 97.2 | 0.142 | 5.99 | 2 |
| COCCS(=O)(=O)c1cc(N)c(C(=O)NC[C@H](C)O)nc1-c1ccc(F)cc1 [Compound 265, 3-amino-6-(4-fluorophenyl)-N-[(2S)-2-hydroxypropyl]-5-[(2-methoxyethyl)sulfonyl]pyridine-2-carboxamide] | 92.4 | 0.141 | 11.24 | 2 |
| C[C@H](O)CNC(=O)c1ncc(S(=O)(=O)N2CCC[C@@H]2C)cc1N [Compound 266, 3-amino-N-[(2S)-2-hydroxypropyl]-5-{[(2S)-2-methylpyrrolidin-1-yl]sulfonyl}pyridine-2-carboxamide] | 105.0 | 0.18 | 21.9 | > 10 |
| C[C@H](O)CNC(=O)c1ncc(S(=O)(=O)NCc2ccc(F)cc2)cc1N [Compound 267, 3-amino-5-[(4-fluorobenzyl)sulfamoyl]-N-[(2S)-2-hydroxypropyl]pyridine-2-carboxamide] | 59.3 | > 0.667 | 0.9 | > 10 |
| C[C@H]1CCCN1S(=O)(=O)c1cnc(C(=O)N2CC(C(N)=O)C2)c(N)c1 [Compound 271, 1-[(3-amino-5-{[(2S)-2-methylpyrrolidin-1-yl]sulfonyl}pyridin-2-yl)carbonyl]azetidine-3-carboxamide] | 20.4 | > 2 | 2.5 | > 10 |
| C[C@H]1CCCN1S(=O)(=O)c1cnc(C(=O)N2CC(O)C2)c(N)c1 [Compound 272, (3-amino-5-{[(2S)-2-methylpyrrolidin-1-yl]sulfonyl}pyridin-2-yl) (3-hydroxyazetidin-1-yl)methanone] | 82.0 | > 0.334 | 2.8 | > 5 |
| Nc1cc(S(=O)(=O)c2ccc(OC(F)(F)F)cc2)cnc1C(=O)NCC(O)CF (stereo not shown) [Compound 273, 3-amino-N-(3-fluoro-2-hydroxypropyl)-5-{[4-(trifluoromethoxy)phenyl]sulfonyl}pyridine-2-carboxamide] | 112.0 | 0.0103 | 39.5 | 1.01 |
| C[C@H](O)CNC(=O)c1nc(C2CC2)c(S(=O)(=O)c2ccc(F)cc2)cc1N [Compound 274, 3-amino-6-cyclopropyl-5-[(4-fluorophenyl)sulfonyl]-N-[(2S)-2-hydroxypropyl]pyridine-2-carboxamide] | 111.0 | 0.0069 | 69.5 | > 3.33 |
| Nc1cc(S(=O)(=O)c2ccc(OC(F)(F)F)cc2)cnc1C(=O)NCC(O)C(F)F (stereo not shown) [Compound 279, 3-amino-N-(3,3-difluoro-2-hydroxypropyl)-5-{[4-(trifluoromethoxy)phenyl]sulfonyl}pyridine-2-carboxamide] | 113.0 | 0.0017 | 57.2 | 0.662 |
| C[C@H]1CCCN1S(=O)(=O)c1cnc(C(=O)NCc2nccc(=O)[nH]2)c(N)c1 [Compound 282, 3-amino-5-{[(2S)-2-methylpyrrolidin-1-yl]sulfonyl}-N-[(6-oxo-1,6-dihydropyrimidin-2-yl)methyl]pyridine-2-carboxamide] | 47.0 | > 0.667 | 1.8 | > 10 |
| C[C@H](O)CNC(=O)c1nc(Oc2cccc(F)c2)c(S(=O)(=O)c2ccc(OC(F)(F)F)cc2)cc1N [Compound 284, 3-amino-6-(3-fluorophenoxy)-N-[(2S)-2-hydroxypropyl]-5-{[4-(trifluoromethoxy)phenyl]sulfonyl}pyridine-2-carboxamide] | 95.1 | 0.0063 | 67.0 | 1.62 |
| C[C@H](O)CNC(=O)c1nc(NC2CC2)c(S(=O)(=O)c2ccc(OC(F)(F)F)cc2)cc1N [Compound 285, 3-amino-6-(cyclopropylamino)-N-[(2S)-2-hydroxypropyl]-5-{[4-(trifluoromethoxy)phenyl]sulfonyl}pyridine-2-carboxamide] | 86.7 | 0.0042 | 52.5 | 0.776 |
